ChEMBL document CHEMBL1201862, “PubChem BioAssay data set” (2004)
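Five compound concentrations were applied to cells in 96-well plates for 48 hours; endpoints were derived by simple linear interpolation of the resulting dose-response curve. At the GI50, growth is halved.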 Active and inactive are the calls of the source. Rule as the data show it: active = GI50 up to about 1.1 µM and inactive = higher.

Assays:
Test in all cases: DTP human tumour cell line panel, 48 h
[1] = system: UO-31
[2] = system: EKVX
[3] = system: SNB-78
[4] = system: IGROV-1
[5] = system: KM12
[6] = system: OVCAR-4
[7] = system: OVCAR-5
[8] = system: SF-539
[9] = system: LOX IMVI
[10] = system: DMS-114
[11] = system: HCT-15
[12] = system: OVCAR-8
[13] = system: SK-OV-3
[14] = system: NCI/ADR-RES
[15] = system: UACC-62
[16] = system: A498
[17] = system: HOP-62
[18] = system: DLD-1
[19] = system: SF-295
[20] = system: RPMI-8226
[21] = system: CCRF-CEM
[22] = system: NCI-H226
[23] = system: XF498
[24] = system: SK-MEL-5
[25] = system: HL-60
[26] = system: Malme-3M
[27] = system: SK-MEL-2
[28] = system: KM-20L2
[29] = system: A549
[30] = system: MOLT-4
[31] = system: U-251
[32] = system: NCI-H23
[33] = system: UACC-257
[34] = system: NCI-H460
[35] = system: SW-620
[36] = system: SNB-75
[37] = system: HCC 2998
[38] = system: DMS-273
[39] = system: OVCAR-3
[40] = system: HT-29
[41] = system: CAKI-1
[42] = system: SN12C
[43] = system: HOP-92
[44] = system: M19-MEL
[45] = system: SF-268
[46] = system: RXF 393
[47] = system: MCF7
[48] = system: HOP-18
[49] = system: NCI-H522
[50] = system: HCT-116
[51] = system: SK-MEL-28
[52] = system: K562
[53] = system: SNB-19
[54] = system: ACHN
[55] = system: 786-0
[56] = system: TK-10
[57] = system: M14
[58] = system: LXFL 529
[59] = system: SR
[60] = system: MDA-MB-435
[61] = system: T47D
[62] = system: MDA-N
[63] = system: COLO 205
[64] = system: Hs-578T
[65] = system: MDA-MB-231
[66] = system: PC-3
[67] = system: BT-549

Measured: GI50

O=C(NN1C(=O)CSC1c1ccc(C(F)(F)F)cc1)c1ccncc1 (stereo not given)
> 100 µM: [11]
inactive: [1] > 100 µM | [2] > 100 µM | [3] > 31.6 µM | [4] > 100 µM | [5] > 100 µM | [6] > 100 µM | [7] > 100 µM | [8] > 100 µM | [9] > 100 µM | [10] > 100 µM | [12] > 100 µM | [13] > 100 µM | [14] > 100 µM | [15] > 100 µM | [16] > 31.6 µM | [17] > 100 µM | [18] > 100 µM | [19] > 100 µM | [20] > 65.6 µM | [21] > 100 µM | [22] > 100 µM | [23] > 100 µM | [24] > 100 µM | [25] > 100 µM | [26] > 100 µM | [27] > 100 µM | [28] > 100 µM | [29] > 100 µM | [30] > 100 µM | [31] > 100 µM | [32] > 100 µM | [33] > 100 µM | [34] > 100 µM | [35] > 100 µM | [36] > 100 µM | [37] > 100 µM | [38] > 100 µM | [39] > 100 µM | [40] > 100 µM | [41] > 100 µM | [42] > 100 µM | [43] > 100 µM | [44] > 100 µM | [45] > 100 µM | [46] 97.3 µM | [47] > 100 µM | [48] > 100 µM | [49] > 100 µM | [50] > 100 µM | [51] > 100 µM | [52] > 100 µM | [53] > 100 µM

Cc1[nH]c2ccccc2c1/C=C/c1c(C)[nH]c2ccccc12
inactive: [1] > 100 µM | [2] > 100 µM | [3] > 100 µM | [4] > 100 µM | [5] > 100 µM | [6] > 100 µM | [7] > 100 µM | [8] > 100 µM | [10] > 100 µM | [54] > 100 µM | [12] > 100 µM | [13] > 100 µM | [15] > 100 µM | [16] > 100 µM | [17] > 100 µM | [18] > 100 µM | [19] > 100 µM | [20] > 100 µM | [55] > 100 µM | [21] 20.7 µM | [22] > 100 µM | [23] > 100 µM | [24] > 100 µM | [25] > 100 µM | [26] > 100 µM | [27] > 100 µM | [28] > 100 µM | [29] > 100 µM | [56] > 100 µM | [30] > 100 µM | [31] > 100 µM | [32] > 100 µM | [33] > 100 µM | [34] > 100 µM | [35] > 100 µM | [36] 31 µM | [37] > 100 µM | [38] > 100 µM | [39] > 100 µM | [40] > 100 µM | [41] > 100 µM | [44] > 100 µM | [46] > 100 µM | [57] > 100 µM | [50] > 100 µM | [51] > 100 µM | [52] > 100 µM | [58] > 100 µM
> 100 µM: [11]

CCCCCCCCCCCCCCCc1nnc(S)[nH]1
48 µM: [11]
inactive: [1] 24 µM | [2] > 100 µM | [3] > 100 µM | [5] > 100 µM | [6] 46.1 µM | [7] > 100 µM | [8] > 100 µM | [9] > 100 µM | [10] 60.4 µM | [54] > 100 µM | [13] > 100 µM | [15] 97.9 µM | [16] > 100 µM | [17] > 100 µM | [18] > 10 µM | [20] 79.3 µM | [21] 51.3 µM | [23] > 100 µM | [25] 49.8 µM | [26] > 100 µM | [27] 29.6 µM | [56] > 100 µM | [30] 20.8 µM | [31] > 100 µM | [32] > 100 µM | [33] 88.7 µM | [34] > 100 µM | [36] > 100 µM | [37] > 100 µM | [39] > 100 µM | [40] > 100 µM | [42] > 100 µM | [44] > 100 µM | [45] > 100 µM | [46] > 100 µM | [59] 29.6 µM | [57] > 100 µM | [49] 19.6 µM | [50] > 100 µM | [51] > 100 µM | [52] 52.6 µM | [58] 30.5 µM | [53] > 100 µM

N/C(S)=N/N=C/c1ncccc1O
1.5 µM: [11]
active: [1] 0.701 µM | [9] 0.925 µM | [54] 0.766 µM | [14] 0.757 µM | [15] 0.482 µM | [19] 0.766 µM | [21] 0.475 µM | [30] 0.787 µM | [32] 0.597 µM | [38] 0.508 µM | [41] 0.927 µM | [42] 0.964 µM | [43] 0.52 µM | [46] 0.843 µM | [47] 0.723 µM
inactive: [60] 3.81 µM | [2] 2.35 µM | [3] 81.8 µM | [4] 1.55 µM | [5] 2.6 µM | [6] 2.96 µM | [61] 3.14 µM | [7] 3.1 µM | [62] 3.77 µM | [13] 4.21 µM | [16] 2.25 µM | [17] 1.23 µM | [18] 2.26 µM | [55] 1.16 µM | [63] 2.83 µM | [22] 2.95 µM | [23] 1.51 µM | [26] 1.95 µM | [27] 6.84 µM | [28] 1.39 µM | [64] 30.8 µM | [29] 2.32 µM | [56] 9.57 µM | [65] 4.29 µM | [31] 1.73 µM | [33] 2.49 µM | [34] 1.29 µM | [35] 1.64 µM | [36] 1.94 µM | [37] 9.08 µM | [39] 1.88 µM | [40] 3.56 µM | [66] 2.97 µM | [44] 1.91 µM | [59] 3.01 µM | [48] 2.25 µM | [57] 1.95 µM | [50] 1.76 µM | [51] 4.29 µM | [52] 1.83 µM | [58] 2.75 µM | [53] 2.65 µM | [67] 3.47 µM

CN(C)/C=N\c1nc(=O)n(C2CCC(CO)O2)cc1F (stereo not given)
inactive: [1] > 100 µM | [2] > 100 µM | [3] 95.9 µM | [5] > 100 µM | [6] > 100 µM | [7] > 100 µM | [9] > 100 µM | [54] > 100 µM | [12] > 100 µM | [13] > 100 µM | [17] > 100 µM | [18] > 100 µM | [19] > 100 µM | [20] > 100 µM | [55] > 100 µM | [63] > 100 µM | [21] > 100 µM | [22] > 100 µM | [23] > 100 µM | [24] > 100 µM | [25] > 100 µM | [26] > 100 µM | [27] > 100 µM | [28] > 100 µM | [29] > 100 µM | [56] > 100 µM | [30] > 100 µM | [31] > 100 µM | [32] > 100 µM | [33] > 100 µM | [34] > 100 µM | [35] > 100 µM | [36] > 100 µM | [37] 96.6 µM | [38] > 100 µM | [39] > 100 µM | [40] > 100 µM | [41] > 100 µM | [42] > 100 µM | [43] > 100 µM | [45] > 100 µM | [46] > 100 µM | [48] > 100 µM | [57] > 100 µM | [49] > 100 µM | [51] > 100 µM | [52] > 100 µM | [58] > 100 µM | [53] > 100 µM
> 100 µM: [11]
